# Test results reported in PubChem BioAssay AID330 (DTP/NCI, 2004).
# Values joined by “and” are separate entries in the source; they are usually repeats but may differ in a detail not shown here. Identical values can stand only once. Toxic doses and inconclusive results are not listed.
# Tested on: P388 leukemia ip, CD2F1 mice, survival T/C
# Assay: NCI In Vivo Anticancer Drug Screen. Data for tumor model P388 Leukemia (intraperitoneal) in CD2F1 (CDF1) mice
# Conditions: endpoint: median survival time, higher = longer survival
# Method in brief: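 Mice carrying the transplanted tumor received test compound or vehicle. Survival was recorded in each group, and the value is the treated-group measurement divided by that of the vehicle-treated control group.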
# [1] = dose: 200.0 mg/kg/injection, schedule: Q01DX009 (ip), vehicle: saline with Tween-80
# [2] = dose: 25.0 mg/kg/injection, schedule: Q01DX009 (ip), vehicle: saline with Tween-80
smiles,measurement,setting,value
CO[C@H]1C[C@@H]2CC[C@@H](C)[C@@](O)(O2)C(=O)C(=O)N2CCCC[C@H]2C(=O)O[C@H]([C@H](C)C[C@@H]2CC[C@@H](O)[C@H](OC)C2)CC(=O)[C@H](C)C=C(C)[C@@H](O)[C@@H](OC)C(=O)[C@H](C)C[C@H](C)/C=C/C=C/C=C1C,T/C,"dose: 6.25 mg/kg/injection, schedule: Q01DX001 (ip), vehicle: clinical formulation",103 % of control
same,T/C,"dose: 6.25 mg/kg/injection, schedule: Q01DX001 (iv), vehicle: clinical formulation",102 % of control
same,T/C,"dose: 6.25 mg/kg/injection, schedule: Q01DX005 (iv), vehicle: clinical formulation",115 % of control
same,T/C,"dose: 12.5 mg/kg/injection, schedule: Q01DX001 (ip), vehicle: clinical formulation",107 % of control
same,T/C,"dose: 12.5 mg/kg/injection, schedule: Q01DX001 (iv), vehicle: clinical formulation",100 % of control
same,T/C,"dose: 12.5 mg/kg/injection, schedule: Q01DX005 (iv), vehicle: clinical formulation",110 % of control
same,T/C,"dose: 25.0 mg/kg/injection, schedule: Q01DX001 (ip), vehicle: clinical formulation",111 % of control
same,T/C,"dose: 25.0 mg/kg/injection, schedule: Q01DX001 (iv), vehicle: clinical formulation",100 % of control
same,T/C,"dose: 25.0 mg/kg/injection, schedule: Q01DX005 (iv), vehicle: clinical formulation",113 % of control
same,T/C,"dose: 50.0 mg/kg/injection, schedule: Q01DX001 (ip), vehicle: clinical formulation",118 % of control
same,T/C,"dose: 50.0 mg/kg/injection, schedule: Q01DX001 (iv), vehicle: clinical formulation",106 % of control
same,T/C,"dose: 50.0 mg/kg/injection, schedule: Q01DX005 (iv), vehicle: clinical formulation",113 % of control
same,T/C,"dose: 50.0 mg/kg/injection, schedule: Q01DX005 (oral), vehicle: saline with Tween-80",110 % of control
same,T/C,"dose: 50.0 mg/kg/injection, schedule: Q01DX009 (oral), vehicle: saline with Tween-80",116 % of control
same,T/C,"dose: 100.0 mg/kg/injection, schedule: Q01DX001 (ip), vehicle: clinical formulation",117 % of control
same,T/C,"dose: 100.0 mg/kg/injection, schedule: Q01DX001 (ip), vehicle: saline with Tween-80",124 % of control
same,T/C,"dose: 100.0 mg/kg/injection, schedule: Q01DX001 (iv), vehicle: clinical formulation",104 % of control
same,T/C,"dose: 100.0 mg/kg/injection, schedule: Q01DX005 (ip), vehicle: clinical formulation",110 % of control
same,T/C,"dose: 100.0 mg/kg/injection, schedule: Q01DX005 (oral), vehicle: saline with Tween-80",112 % of control
same,T/C,"dose: 100.0 mg/kg/injection, schedule: Q01DX009 (oral), vehicle: saline with Tween-80",119 % of control
same,T/C,"dose: 200.0 mg/kg/injection, schedule: Q01DX001 (ip), vehicle: clinical formulation",118 % of control
same,T/C,"dose: 200.0 mg/kg/injection, schedule: Q01DX005 (oral), vehicle: saline with Tween-80",108 % of control
same,T/C,[1],122 % of control
same,T/C,"dose: 200.0 mg/kg/injection, schedule: Q01DX009 (oral), vehicle: saline with Tween-80",112 % of control
same,T/C,"dose: 400.0 mg/kg/injection, schedule: Q01DX005 (oral), vehicle: saline with Tween-80",118 % of control
same,T/C,"dose: 400.0 mg/kg/injection, schedule: Q01DX009 (oral), vehicle: saline with Tween-80",116 % of control
same,T/C,"dose: 800.0 mg/kg/injection, schedule: Q01DX005 (oral), vehicle: saline with Tween-80",116 % of control
same,T/C,"dose: 800.0 mg/kg/injection, schedule: Q01DX009 (oral), vehicle: saline with Tween-80",116 % of control
CCC[CH2][Sn]1([CH2]CCC)[O]OC2(CCCCC2)[O]1,T/C,"dose: 1.25 mg/kg/injection, schedule: Q01DX009 (ip), vehicle: saline with Tween-80",113 % of control
same,T/C,"dose: 2.5 mg/kg/injection, schedule: Q01DX009 (ip), vehicle: saline with Tween-80",109 % of control
O=[N+]([O-])C1CCC(O)C([N+](=O)[O-])C1 (stereo not drawn) (tested in a mixture with another compound),T/C,"dose: 6.25 mg/kg/injection, schedule: Q01DX009 (ip), vehicle: saline with Tween-80",100 % of control
same,T/C,"dose: 12.5 mg/kg/injection, schedule: Q01DX009 (ip), vehicle: saline with Tween-80",96 % of control
same,T/C,[2],99 % of control
CC(C)CC(C(=O)O)N1C(=O)c2ccccc2C1=O (stereo not drawn),T/C,"dose: 50.0 mg/kg/injection, schedule: Q01DX005 (ip), vehicle: Klucel (hydroxypropylcellulose) (HPC)",98 % of control
same,T/C,"dose: 100.0 mg/kg/injection, schedule: Q01DX005 (ip), vehicle: Klucel (hydroxypropylcellulose) (HPC)",100 % of control
same,T/C,"dose: 200.0 mg/kg/injection, schedule: Q01DX005 (ip), vehicle: Klucel (hydroxypropylcellulose) (HPC)",95 % of control
COc1ccc(Cc2ccc[nH]2)cc1,T/C,"dose: 100.0 mg/kg/injection, schedule: Q01DX001 (ip), vehicle: distilled water + alcohol",97 % of control
same,T/C,"dose: 200.0 mg/kg/injection, schedule: Q01DX001 (ip), vehicle: distilled water + alcohol",97 % of control
same,T/C,"dose: 400.0 mg/kg/injection, schedule: Q01DX001 (ip), vehicle: distilled water + alcohol",96 % of control
CC(C)N1C(=O)c2ccccc2S1(Cl)c1ccccc1 (stereo not drawn),T/C,"dose: 100.0 mg/kg/injection, schedule: Q04DX003 (ip), vehicle: Klucel (hydroxypropylcellulose) (HPC)",101 % of control
same,T/C,"dose: 200.0 mg/kg/injection, schedule: Q04DX003 (ip), vehicle: Klucel (hydroxypropylcellulose) (HPC)",98 % of control
same,T/C,"dose: 400.0 mg/kg/injection, schedule: Q04DX003 (ip), vehicle: Klucel (hydroxypropylcellulose) (HPC)",98 % of control
NC(=O)C1CCN(Cc2c[nH]c3ccccc23)CC1,T/C,[2],104 % of control
same,T/C,"dose: 50.0 mg/kg/injection, schedule: Q01DX009 (ip), vehicle: saline with Tween-80",100 % of control
same,T/C,"dose: 100.0 mg/kg/injection, schedule: Q01DX009 (ip), vehicle: saline with Tween-80",104 % of control
same,T/C,[1],102 % of control
CCOC(=O)/C=C/C(=O)NN,T/C,"dose: 12.5 mg/kg/injection, schedule: Q01DX009 (ip), vehicle: water",89 % of control
same,T/C,"dose: 25.0 mg/kg/injection, schedule: Q01DX009 (ip), vehicle: water",100 % of control
same,T/C,"dose: 50.0 mg/kg/injection, schedule: Q01DX009 (ip), vehicle: water",99 % of control and 102 % of control and 93 % of control
same,T/C,"dose: 100.0 mg/kg/injection, schedule: Q01DX009 (ip), vehicle: water",107 % of control and 109 % of control and 97 % of control
same,T/C,"dose: 200.0 mg/kg/injection, schedule: Q01DX009 (ip), vehicle: water",104 % of control and 109 % of control
CCOC(=O)CC1(O)CSC(=C(C#N)C#N)S1 (stereo not drawn),T/C,"dose: 50.0 mg/kg/injection, schedule: Q01DX005 (ip), vehicle: saline with Tween-80",100 % of control
same,T/C,"dose: 100.0 mg/kg/injection, schedule: Q01DX005 (ip), vehicle: saline with Tween-80",100 % of control
same,T/C,"dose: 200.0 mg/kg/injection, schedule: Q01DX005 (ip), vehicle: saline with Tween-80",92 % of control
CCC1CC2CN(CCc3c([nH]c4ccccc34)C(C(=O)OC)(c3cc4c(cc3OC)N(C)C3C(O)(C(=O)OC)C(OC(C)=O)C5(CC)CCCN6CCC43C65)C2)C1 (stereo not drawn),T/C,"dose: 1.0 mg/kg/injection, schedule: Q01DX001 (ip), vehicle: water",124 % of control
same,T/C,"dose: 2.0 mg/kg/injection, schedule: Q01DX001 (ip), vehicle: water",122 % of control
same,T/C,"dose: 16.0 mg/kg/injection, schedule: Q01DX001 (ip), vehicle: water",153 % of control and 154 % of control
same,T/C,"dose: 32.0 mg/kg/injection, schedule: Q01DX001 (ip), vehicle: water",163 % of control
CC(CC(=O)O)C(C)(C#N)C(=O)O (stereo not drawn),T/C,"dose: 50.0 mg/kg/injection, schedule: Q01DX005 (ip), vehicle: saline",102 % of control and 110 % of control
same,T/C,"dose: 100.0 mg/kg/injection, schedule: Q01DX005 (ip), vehicle: saline",91 % of control and 96 % of control
same,T/C,"dose: 200.0 mg/kg/injection, schedule: Q01DX005 (ip), vehicle: saline",96 % of control
Cn1c(-c2ccccc2)c2c(c1-c1ccccc1)C(=O)c1c(c(-c3ccccc3)n(C)c1-c1ccccc1)C2=O,T/C,"dose: 50.0 mg/kg/injection, schedule: Q01DX009 (ip), vehicle: Klucel (hydroxypropylcellulose) (HPC)",94 % of control
same,T/C,"dose: 100.0 mg/kg/injection, schedule: Q01DX009 (ip), vehicle: Klucel (hydroxypropylcellulose) (HPC)",92 % of control
same,T/C,"dose: 200.0 mg/kg/injection, schedule: Q01DX009 (ip), vehicle: Klucel (hydroxypropylcellulose) (HPC)",97 % of control
CCOP(=O)(Nc1ccc(C)cc1C)OCC,T/C,"dose: 50.0 mg/kg/injection, schedule: Q01DX009 (ip), vehicle: saline",100 % of control
same,T/C,"dose: 100.0 mg/kg/injection, schedule: Q01DX001 (ip), vehicle: saline",103 % of control
same,T/C,"dose: 100.0 mg/kg/injection, schedule: Q01DX009 (ip), vehicle: saline",104 % of control
same,T/C,"dose: 200.0 mg/kg/injection, schedule: Q01DX001 (ip), vehicle: saline",107 % of control
same,T/C,"dose: 200.0 mg/kg/injection, schedule: Q01DX009 (ip), vehicle: saline",99 % of control
same,T/C,"dose: 400.0 mg/kg/injection, schedule: Q01DX001 (ip), vehicle: saline",100 % of control
O=C1/C(=C/c2ccccc2)CCCC12C(c1ccccc1)N2C1CCCCC1 (stereo not drawn),T/C,"dose: 100.0 mg/kg/injection, schedule: Q04DX002 (ip), vehicle: Klucel (hydroxypropylcellulose) (HPC)",93 % of control
same,T/C,"dose: 200.0 mg/kg/injection, schedule: Q04DX002 (ip), vehicle: Klucel (hydroxypropylcellulose) (HPC)",86 % of control
same,T/C,"dose: 400.0 mg/kg/injection, schedule: Q04DX002 (ip), vehicle: Klucel (hydroxypropylcellulose) (HPC)",92 % of control
